This is an account of results in patent publication US8501446B2 (Vertex Pharmaceuticals Incorporated, priority 2004, dated 2013).

What all share (type): biochemical
Assay [1] addresses JAK2 (Homo sapiens, UniProt O60674). The assay is described as follows: JAK2 inhibition assay (radioactive enzyme assay, as for JAK3). The conditions noted are these: average Ki if more than one value determined. An outline of the steps:
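Both kinases: poly(Glu)4Tyr substrate in 100 mM HEPES pH 7.4, 10 mM MgCl2, 1 mM DTT. Run 20 min at 25° C, TCA stop, filter-bound ³³P counted, Ki(app) fitted after background subtraction. JAK3: final [γ-³³P]ATP 5 μM, enzyme added as 2 nM solution. JAK2: final poly(Glu)4Tyr 15 μM, final ATP 12 μM.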

Assay [2] concerns the target T1, full length Aurora-A (AA 1-403) (Homo sapiens, UniProt O14965).
T1 construct: full length Aurora-A (AA 1-403)
T1 sequence (O14965 1-403): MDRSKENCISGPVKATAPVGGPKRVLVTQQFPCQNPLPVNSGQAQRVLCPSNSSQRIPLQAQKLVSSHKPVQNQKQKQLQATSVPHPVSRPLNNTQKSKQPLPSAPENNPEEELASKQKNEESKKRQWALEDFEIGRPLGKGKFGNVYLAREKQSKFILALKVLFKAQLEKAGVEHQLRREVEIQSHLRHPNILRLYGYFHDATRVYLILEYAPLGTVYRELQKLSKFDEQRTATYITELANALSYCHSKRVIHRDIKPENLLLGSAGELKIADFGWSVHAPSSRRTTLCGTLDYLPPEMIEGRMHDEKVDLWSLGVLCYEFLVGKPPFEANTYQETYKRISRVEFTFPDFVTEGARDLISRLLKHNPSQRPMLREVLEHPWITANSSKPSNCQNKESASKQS
The assay is described as follows: Aurora-A inhibition assay, standard coupled enzyme system. The conditions noted are these: average Ki if more than one value determined.

In assay [3] the target is T2, ROCK I (AA 6-553) (Homo sapiens, UniProt Q13464).
T2 construct: ROCK I (AA 6-553)
T2 sequence (Q13464 6-553, species assumed): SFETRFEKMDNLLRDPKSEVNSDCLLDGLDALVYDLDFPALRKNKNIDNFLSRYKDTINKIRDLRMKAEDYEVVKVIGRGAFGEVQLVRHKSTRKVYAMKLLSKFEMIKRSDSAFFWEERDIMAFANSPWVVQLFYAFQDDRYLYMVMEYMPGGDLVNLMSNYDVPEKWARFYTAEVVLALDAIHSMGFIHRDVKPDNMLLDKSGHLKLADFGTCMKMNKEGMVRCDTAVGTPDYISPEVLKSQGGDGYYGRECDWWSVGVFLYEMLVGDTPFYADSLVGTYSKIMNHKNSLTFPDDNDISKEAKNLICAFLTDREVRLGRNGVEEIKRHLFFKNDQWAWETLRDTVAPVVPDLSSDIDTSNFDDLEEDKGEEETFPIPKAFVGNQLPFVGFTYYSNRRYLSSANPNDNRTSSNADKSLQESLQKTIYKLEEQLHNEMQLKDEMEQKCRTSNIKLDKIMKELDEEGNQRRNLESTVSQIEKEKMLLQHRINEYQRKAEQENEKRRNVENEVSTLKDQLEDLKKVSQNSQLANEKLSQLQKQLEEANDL
The assay is described as follows: ROCK inhibition assay, standard coupled enzyme system ("Enzyme"). The conditions noted are these: enzyme-linked assay. An outline of the steps: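 ROCK I (AA 6-553) at 45 nM and 30 °C with 45 μM ATP and 200 μM peptide, in 100 mM HEPES pH 7.5, 10 mM MgCl2, 25 mM NaCl, 2 mM DTT, 1.5% DMSO. ADP output read by a PK/LDH coupled system: 2.5 mM PEP, 350 μM NADH, 30 μg/ml PK, 10 μg/ml LDH.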

The target in assay [4] is Aurora-B (Homo sapiens, UniProt Q96GD4). The assay is described as follows: Aurora-B inhibition assay, radioactive assay. The conditions noted are these: average Ki if more than one value determined. As to the method:
Compounds were screened for their ability to inhibit JAK3 using a standard radioactive enzyme assay. 1.5 μL/well of a DMSO stock containing serial dilutions of a compound of the present invention (concentrations ranging from 667 μM to 46 nM) was placed in a 96 well polycarbonate plate. 50 μL per well of kinase buffer (100 mM HEPES (pH 7.4), 10 mM MgCl2, 25 mM NaCl, 1 mM DTT, and 0.01% bovine serum albumin (BSA)) containing 2 μM poly(Glu)4Tyr and 10 μM ATP was also added to the plate. To initiate the reaction, 50 μL kinase buffer containing 2 nM JAK3 enzyme was added. Final ATP concentration was 5 μM [γ-^33P] ATP (200 μCi ^33P ATP/μmol ATP (Perkin Elmer, Cambridge, Mass.). After 20 minutes at room temperature (25° C.), the reaction was stopped by adding 50 μL 20% trichloroacetic acid (TCA)/0.4 mM ATP to each well. The entire content of each well was then transferred to a 96 well glass fiber filter plate using a TomTek Cell Harvester. After washing, 60 μL scintillation fluid was added and ^33P incorporation detected using a Perkin Elmer TopCount. After removing mean background values for all of the data points the data was fit using Prism software to obtain a Ki(app). Inhibition of JAK2 was measured as above except that final poly(Glu)4Tyr concentration was 15 μM and final ATP concentration was 12 μM.
Some compounds were screened for their ability to inhibit ROCK using a standard radioactive enzyme assay. Assays were carried out in a solution containing 100 mM HEPES (pH 7.5), 10 mM MgCl2, 25 mM NaCl, 2 mM DTT, and 1.5% DMSO. Final substrate concentrations in the assay were 13 μM [γ-^33P] ATP (25 mCi ^33P ATP/mmol ATP, Perkin Elmer, Cambridge, Mass./Sigma Chemicals, St Louis, Mo.) and 27 μM Myelin Basic Protein (MBP). Final enzyme concentration in the assay was 5 nM ROCK. Assays were carried out at room temperature. 1.5 μl of DMSO stock containing serial dilutions of the compound of the present invention (concentrations ranging from 10 μM to 2.6 nM) was placed in a 96 well plate. 50 μl of Solution 1 (100 mM HEPES (pH 7.5), 10 mM MgCl2, […]) was added to the plate. The reaction was initiated by addition of 50 μl of Solution 2 (100 mM HEPES (pH 7.5), 10 mM MgCl2, 4 mM DTT, […] and 10 nM ROCK). After 2 hours the reaction was quenched with 50 μL of 30% trichloroacetic acid (TCA, Fisher) containing 9 mM ATP. Transfer of 140 μL of the quenched reaction to a glass fiber filter plate (Corning, Cat. No. 3511) was followed by washing 3 times with 5% TCA. 50 μL of Optima Gold scintillation fluid (Perkin Elmer) was added and the plates were counted on a Top Count (Perkin Elmer). After removing mean background values for all of the data points the data was fit using Prism software to obtain a Ki(app).
An assay stock buffer solution was prepared containing all of the reagents listed above with the exception of ATP and the test compound of interest. The assay stock buffer solution (60 μl) was incubated in a 96 well plate with 2 μl of the test compound of interest at final concentrations spanning 0.002 μM to 30 μM at 30° C. for 10 min. Typically, a 12 point titration was conducted by preparing serial dilutions (from 1 mM compound stocks) with DMSO of the test compounds in daughter plates. The reaction was initiated by the addition of 5 μl of ATP (final concentration 200 μM). Rates of reaction were obtained using a Molecular Devices Spectramax plate reader (Sunnyvale, Calif.) over 10 min at 30° C. The Ki values were determined from the rate data as a function of inhibitor concentration using computerized nonlinear regression (Prism 3.0, Graphpad Software, San Diego, Calif.). Aurora-C activity was screened in a similar manner using Aurora-C protein. Aurora-B activity was screened using a radioactive assay, such as described in Examples 1 and 2, but using Aurora-B protein.

Sequence of Aurora-B (Q96GD4 whole entry): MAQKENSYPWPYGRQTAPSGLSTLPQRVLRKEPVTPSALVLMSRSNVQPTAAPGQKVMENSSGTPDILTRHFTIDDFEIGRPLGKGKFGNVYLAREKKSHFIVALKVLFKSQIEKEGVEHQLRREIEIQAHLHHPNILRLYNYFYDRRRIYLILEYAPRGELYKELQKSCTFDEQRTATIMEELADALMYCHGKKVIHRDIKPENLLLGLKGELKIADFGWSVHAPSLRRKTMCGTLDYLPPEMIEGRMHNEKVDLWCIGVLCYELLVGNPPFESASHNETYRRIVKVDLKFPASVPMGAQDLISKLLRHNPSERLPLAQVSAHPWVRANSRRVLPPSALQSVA
Sequence of JAK2 (O60674 whole entry, species assumed): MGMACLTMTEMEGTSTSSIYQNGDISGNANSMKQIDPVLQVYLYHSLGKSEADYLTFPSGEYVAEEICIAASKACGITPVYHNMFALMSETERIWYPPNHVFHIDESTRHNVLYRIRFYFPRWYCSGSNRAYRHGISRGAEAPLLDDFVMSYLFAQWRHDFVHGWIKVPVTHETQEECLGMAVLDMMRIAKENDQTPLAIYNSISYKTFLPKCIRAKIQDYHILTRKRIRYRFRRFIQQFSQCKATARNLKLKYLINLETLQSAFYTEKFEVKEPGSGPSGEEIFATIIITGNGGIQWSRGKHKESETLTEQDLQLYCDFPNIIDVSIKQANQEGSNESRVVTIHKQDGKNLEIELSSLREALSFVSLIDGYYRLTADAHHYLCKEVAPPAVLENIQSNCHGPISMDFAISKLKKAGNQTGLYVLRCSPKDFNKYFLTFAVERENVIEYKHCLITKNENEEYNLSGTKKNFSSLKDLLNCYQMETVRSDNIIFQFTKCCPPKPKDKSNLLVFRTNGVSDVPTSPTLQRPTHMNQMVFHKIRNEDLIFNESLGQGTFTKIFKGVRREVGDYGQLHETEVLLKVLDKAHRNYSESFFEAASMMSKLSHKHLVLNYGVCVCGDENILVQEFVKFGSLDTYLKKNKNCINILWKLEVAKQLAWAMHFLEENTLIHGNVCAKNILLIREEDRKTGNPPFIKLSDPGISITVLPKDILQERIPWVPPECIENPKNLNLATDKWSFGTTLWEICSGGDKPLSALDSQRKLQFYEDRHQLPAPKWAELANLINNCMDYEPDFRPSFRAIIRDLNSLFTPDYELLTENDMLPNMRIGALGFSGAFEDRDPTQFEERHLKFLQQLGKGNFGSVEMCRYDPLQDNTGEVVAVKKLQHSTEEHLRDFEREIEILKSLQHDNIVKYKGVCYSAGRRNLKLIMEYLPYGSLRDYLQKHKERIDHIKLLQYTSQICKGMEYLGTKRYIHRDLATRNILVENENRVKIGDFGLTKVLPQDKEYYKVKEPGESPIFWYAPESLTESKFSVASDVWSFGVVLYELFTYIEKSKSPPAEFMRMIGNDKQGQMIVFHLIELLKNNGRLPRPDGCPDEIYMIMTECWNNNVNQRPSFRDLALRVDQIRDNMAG

On to `C[C@H](Nc1nc(-c2c[nH]c3ncc(Cl)cc23)ncc1F)C(=O)NCCN1CCNC1=O` [Compound 441], for which the Ki in assay [1], in assay [2], in assay [3] and in assay [4] was 500 to 5000 nM throughout.

For the compound `C[C@H](Nc1nc(-c2c[nH]c3ncc(Cl)cc23)ncc1F)C(=O)NCCCn1ccnc1` [Compound 442], the inhibitory constant (Ki) in assay [1] is 500 to 5000 nM; in assay [2], under 500 nM; in assay [3], 500 to 5000 nM; in assay [4] it was 500 to 5000 nM.

Take `CC[C@H](Nc1nc(-c2c[nH]c3ncc(Cl)cc23)ncc1F)c1ccccc1` [Compound 354]: the results for the Ki in assay [2], in assay [3] and in assay [4] were under 500 nM, 500 to 5000 nM and under 500 nM, respectively.

Turning to `C[C@H](Nc1nc(-c2c[nH]c3ncc(Cl)cc23)ncc1N)c1ccc(F)cc1` [Compound 423], the Ki in assay [2] is under 500 nM; in assay [3], 500 to 5000 nM; in assay [4] it was under 500 nM.

As for `C[C@H](Nc1cc(C(=O)N(C)C)nc(-c2c[nH]c3ncc(Cl)cc23)n1)c1ccc(F)cc1` [Compound 425], the Ki in assay [2] is under 500 nM; in assay [3] it was 500 to 5000 nM; in assay [4] it was under 500 nM.

For the compound `C[C@H](Nc1nc(-c2c[nH]c3ncc(Cl)cc23)ncc1F)C(=O)NCC[C@H]1CCCN1C` [Compound 448], the Ki in assay [2], in assay [3] and in assay [4] was 500 to 5000 nM in each case.

As to `Cc1ccccc1Nc1nc(-c2c[nH]c3ncc(Cl)cc23)ncc1F` [Compound 299], the Ki in assay [2], in assay [3] and in assay [4] was under 500 nM each time.

Consider `C[C@H](Nc1nc(-c2c[nH]c3ncc(Cl)cc23)ncc1F)C(=O)NCCc1cccnc1` [Compound 449], for which the Ki in assay [2] was under 500 nM; in assay [3], 500 to 5000 nM; in assay [4], 500 to 5000 nM.

For the compound `CN(C)CC[C@H](Nc1nc(-c2c[nH]c3ncc(Cl)cc23)ncc1F)C(=O)N(C)C` [Compound 456], the inhibitory constant (Ki) is under 500 nM in assay [2], 500 to 5000 nM in assay [3] and 500 to 5000 nM in assay [4].

For the compound `Fc1cnc(-c2c[nH]c3ncc(Cl)cc23)nc1NC1CCCc2ccccc21` (centres unmarked) [Compound 330], the values for the Ki in assay [2], in assay [3] and in assay [4] were under 500 nM, 500 to 5000 nM and under 500 nM, respectively.

As for `C[C@H](Nc1nc(-c2c[nH]c3ncc(Cl)cc23)ncc1F)C(=O)NCCNC(=O)OC(C)(C)C` [Compound 426], the results for the Ki in assay [2], in assay [3] and in assay [4] were under 500 nM, 500 to 5000 nM and under 500 nM, respectively.

In the case of `C[C@H](Nc1nc(-c2c[nH]c3ncc(Cl)cc23)ncc1F)C(=O)NCCc1c[nH]c2ccccc12` [Compound 437], the values for the Ki in assay [2], in assay [3] and in assay [4] were under 500 nM, 500 to 5000 nM and 500 to 5000 nM, respectively.

For the compound `Clc1cnc2[nH]cc(-c3cccc(NC4CCCCCC4)n3)c2c1` [Compound 291], the Ki is under 500 nM in assay [2], 500 to 5000 nM in assay [3] and 500 to 5000 nM in assay [4].

Regarding `C[C@H](Nc1nc(-c2c[nH]c3ncc(Cl)cc23)ncc1F)C(=O)NCCc1ccccn1` [Compound 438], the Ki in assay [2], in assay [3] and in assay [4] was 500 to 5000 nM each time.

Take `C[C@H](Nc1nc(-c2c[nH]c3ncc(Cl)cc23)ncc1F)C(=O)NCCN(C)C(=O)OC(C)(C)C` [Compound 451]: the Ki in assay [2], in assay [3] and in assay [4] was 500 to 5000 nM throughout.

Take `C[C@H](Nc1nc(-c2c[nH]c3ncc(Cl)cc23)ncc1F)C(=O)NCCN1CCOCC1` [Compound 435]: the Ki in assay [2], in assay [3] and in assay [4] was 500 to 5000 nM throughout.

`C[C@H](Nc1nc(-c2c[nH]c3ncc(Cl)cc23)ncc1F)C(=O)NCCN1CCCC1` [Compound 436]: the inhibitory constant (Ki) in assay [2] was 500 to 5000 nM; in assay [3], 500 to 5000 nM; in assay [4] it was under 500 nM.

As a reminder, the Ki is a measure of affinity in units of concentration, obtained from inhibition or displacement.
